# Data from patent US20160097044A1, “Antimicrobial Enzyme Fusions Reduce Resistance and Kill Intracellular Staphylococcus aureus” (The United States of America, as Represented by the …, priority 2014, published 2016).
# Experiments:
# [1] = test system: intracellular S. aureus strain UAMS-1 in primary mouse-derived osteoblasts (mOBs); test: Intracellular S. aureus eradication assay in murine osteoblasts; format: cell-based; conditions: mOB, 5 μg/ml, 2 h
# From the text: FIGS. 5a-5e depict peptidoglycan hydrolase-protein transduction domain (PGH-PTD) eradication of intracellular S. aureus in cultured cells. Cultured cells were infected, treated with gentamicin to kill extracellular S. aureus, and then treated with the peptidoglycan hydrolases indicated. All results are standardized to the gentamicin (GENT) only control. Nomenclature of the peptidoglycan hydrolase constructs is as in FIG. 1. Asterisks indicate statistical significance detected with single factor ANOVA (α=0.05) with paired t-test posthoc analyses α=0.05 adjusted with Sidák correction for multiple comparisons (for all cases p<0.01). […] Error bars represent SEM. […] Yellow staining in the combined panel represents intracellular co-localization (in a single plane as determined by z-stack analysis) of both S. aureus and K-L-PTD1 (blue arrow). […]
# Three similar intracellular S. aureus eradication assays from three different labs were optimized for (A) a cultured bovine mammary epithelial cell line (MAC-T, Nexia Biotechnologies, Quebec, Canada; Almeida, supra), (B) primary C57BL/6 mouse-derived osteoblasts (mOBs) (McCall et al. 2008. J. Bone Miner. Res. 23: 30-40) or (C) human brain microvascular endothelial cells (hBMEC; Stins, supra). […] The cell lysate was subjected to serial dilution plating, and the resultant CFUs were counted and normalized to the gentamicin control for each assay. […]
# [2] = test system: intracellular S. aureus strain UAMS-1 in murine calvaria; test: Ex vivo neonatal mouse calvaria intracellular eradication; format: cell-based
# Description: Neonatal mouse whole calvaria were treated for 4 hours with chimeric peptidoglycan hydrolases or buffer alone, 24 hours post inoculation with GFP-expressing S. aureus. Calvaria were embedded in freeze media, sectioned, and subjected to fluorescence imaging. The image shown is a representative figure for triplicate sections of three separate calvaria. FIG. 8b depicts fluorescence intensity from these sections measured in ImageJ and defined as arbitrary fluorescence standardized to the untreated control. Error bars represent SEM of four replicate experiments. FIG. 8c depicts ex-vivo intracellular S. aureus eradication. Infected calvaria were homogenized and CFU were counted post treatment. Error bars represent SEM. FIG. 8d depicts a murine model of staphylococcal osteomyelitis. C57BL/6J mice were anesthetized and their femurs were surgically exposed. A trough was drilled through the bone cortex and the damaged bone sites were inoculated with 1×10^3 CFU S. aureus in agarose beads. After 24 hours, mice were treated (i.m. to site of infection) twice in a 24 h period with PBS or 5 mg/kg of triple fusion K-L or K-L-PTD1. The femurs were removed, homogenized, and plated to quantify the bacterial load. Bars indicate the average CFU recovered (N=6). […] Asterisks represent statistical significance as determined by one-way ANOVA followed by Tukey's posthoc test.
# To examine the intracellular uptake and eradication in murine osteoblast-containing tissue samples, both ex vivo calvaria (skull cap), and in vivo femur injury models were tested. Calvaria were isolated from neonatal mice and infected with UAMS-1 strain of S. aureus (1×10^6 bacteria/calvaria) for 2 h at 37° C. in osteoblast growth medium in the absence of antibiotics. Following 3× washes with PBS, calvaria were exposed to 50 μg/ml of gentamicin for 15 min to kill extracellular bacteria and further cultured in gentamicin containing osteoblast growth media. After 24 h later, calvaria were treated with peptidoglycan hydrolases (5 μg/ml) or gentamicin only control for 2 h. Lysis buffer containing 0.05% trypsin and 0.25% Triton X-100 was used to homogenize the calvaria, the homogenates were quantitatively plated on LB agar plates, and the CFU were enumerated after 24 h. The data represents triplicate determinants of two separate experiments.
# Calvaria were isolated, and infected as described above using GFP-tagged UAMS-1 strain of S. aureus. Two hours post-infection, calvaria were washed with PBS followed by a 15 minutes treatment with 50 μg/ml gentamicin to kill extracellular bacteria. 24 hours post-infection, calvaria were treated with 5 μg/ml peptidoglycan hydrolases or gentamicin only control for two hours and embedded in Tissue-Tek O.C.T compound (Sakura, Torrance, Calif.). […]
substance,measurement,setting,value
"K-L: both LysK lytic domains fused to the N-terminus of lysostaphin; SEQ ID NO:5, protein SEQ ID NO:6",intracellular S. aureus CFUs relative to gentamicin only control,[1],reduced the intracellular bacteria recovered
same,live bacteria (CFU) recovered from calvaria,"[2]; 5 μg/ml for 2 h, homogenized calvaria",able to reduce the number of live bacteria recovered from sectioned calvaria
same,elimination of GFP-labeled intracellular S. aureus (fluorescence),"[2]; 5 μg/ml, 24 hours post-infection, sectioned calvaria",able to eliminate GFP-labeled intracellular S. aureus strain UAMS-1 from murine calvaria
